Measured values: patent US11780821B2, “Inhibitors of fibroblast activation protein” (Praxis Biotech LLC, priority 2017, dated 2023)

What was measured:
[1] = target: T1, recombinant human FAP (rhFAP) (Homo sapiens, UniProt Q12884); experiment: Inhibition of FAP-mediated digestion of FGF21 in vitro; format: biochemical
T1 construct: purchased R&D systems 3715-SE-010
T1 sequence (Q12884 1-760): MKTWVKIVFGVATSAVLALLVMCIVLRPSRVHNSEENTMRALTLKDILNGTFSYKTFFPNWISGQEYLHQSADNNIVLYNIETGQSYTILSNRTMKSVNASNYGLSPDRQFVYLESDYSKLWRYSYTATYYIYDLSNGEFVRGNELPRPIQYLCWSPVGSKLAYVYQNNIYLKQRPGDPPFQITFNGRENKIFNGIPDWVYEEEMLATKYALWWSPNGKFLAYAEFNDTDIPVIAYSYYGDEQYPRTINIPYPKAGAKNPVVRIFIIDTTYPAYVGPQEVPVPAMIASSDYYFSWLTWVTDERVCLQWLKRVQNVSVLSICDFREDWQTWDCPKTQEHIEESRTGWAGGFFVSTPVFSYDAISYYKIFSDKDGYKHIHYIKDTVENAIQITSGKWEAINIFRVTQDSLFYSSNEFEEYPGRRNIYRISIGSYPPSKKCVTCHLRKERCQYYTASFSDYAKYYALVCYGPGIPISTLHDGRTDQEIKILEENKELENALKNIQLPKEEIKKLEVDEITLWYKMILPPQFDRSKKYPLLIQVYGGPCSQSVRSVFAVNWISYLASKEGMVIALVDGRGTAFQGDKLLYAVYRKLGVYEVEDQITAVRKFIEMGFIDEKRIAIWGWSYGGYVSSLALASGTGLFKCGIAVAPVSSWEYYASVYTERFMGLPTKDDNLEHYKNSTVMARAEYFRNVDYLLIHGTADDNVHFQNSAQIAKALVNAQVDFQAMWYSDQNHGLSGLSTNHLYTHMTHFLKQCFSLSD
Description: Recombinant human FGF21 (rhFGF21; Cat. No. #2539-FG-025/CF, R&D systems) was incubated overnight (16 h) at 37° C. with recombinant human FAP (rhFAP; Cat. No. #3715-SE-010, R&D systems) in digestion buffer (50 mM Tris pH 7.4, 100 mM NaCl, 0.1 mg/ml bovine serum albumin). Reactions were carried out at final concentrations of 1000 ng/mL hFGF21 and 400, 800 or 1200 ng/mL rhFAP in a volume of 100 μL. For SDS-PAGE analysis, after incubation each sample received immediately 4× Laemmli protein sample buffer (Cat. No. #161-0747, Bio-Rad) supplemented with 0.1 ml […]/10 ml aliquot and then boiled at 95° C. during 10 min. An aliquot of 15 μL of each sample were then loaded onto a reducing 20% Tris-Tricine SDS-PAGE gel. For immunoblot analysis, proteins were separated on SDS-PAGE gels and transferred to PVDF membranes (Cat. No. #1620177, Bio-Rad). […] Proteins were detected using the ECL Western Blotting Substrate (Cat. No. #32106, Thermo Fisher Scientific) and visualized using a ChemiDoc™ Imaging System (Biorad) and Image lab software v5.2.1 build 11. […]
Additionally, the IC50 for FAP-mediated proteolytic cleavage of FGF21, was determined in the using a serial dilution of compound 13 (an exemplary compound).

[2] = PK study in hamsters (IV and PO); format: in vivo; conditions: male, Golden Syrian, plasma, hamster
Description: To assess the effect of FAP inhibition by an exemplary compound over the cleavage of endogenously produced FGF21, in vivo PK/PD studies were conducted in male Golden Syrian hamsters following single intravenous and oral administration of an exemplary compound. Compound 13 (an exemplary compound) was formulated in dimethyl sulfoxide (DMSO)/Solutol® HS 15 (BASF, Germany)/phosphate buffered saline (PBS, Sigma, USA) (5/5/90, v/v/v) at 0.2 mg/mL for IV injection and polyethylene glycol (PEG) 200 (Sigma, USA)/water for injection (WFI; Tai-Yu, Taiwan) (50/50, v/v) at 1 mg/mL for PO administration. The dosing volumes were 5 mL/kg for IV and 10 mL/kg for PO. Hamsters from Group 1 received an intravenous bolus via jugular vein of 1 mg/kg of compound 13 (an exemplary compound). On the other hand, hamsters from Group 2 received an intragastric bolus of 10 mg/kg of compound 13 (an exemplary compound) using feeding needles. Plasma samples were collected at 5, 10, 15, 30, 60, 120, 240, 360, 480 and 1440 minutes post-dose in both IV and PO groups. Hamsters from group 3 were not dosed and were used to collect samples of zero time point and baseline levels of FAP activity and endogenous FGF21. […]

Which “inhibition of proteolytic processing of rhFGF21 by rhFAP (intact rhFGF21, Western blot)” value ([1]; 100 and 1000 nM, 16 h at 37° C.) does the source give for `N#C[C@@H]1CC(F)(F)CN1C(=O)CNC(=O)c1ccncc1-c1ccccc1` [Compound 13, (S)—N-(2-(2-cyano-4,4-difluoropyrrolidin-1-yl)-2-oxoethyl)-3-phenylisonicotinamide] here?
Its value is “intact form of rhFGF21 is preserved”.

What about the “IC50 for FAP-mediated proteolytic cleavage of FGF21” value ([1]; serial dilution, densitometry) of the same compound?
Its value is “nanomolar range”.

What about the AUC(0-t) ([2]; intravenous 1 mg/kg) of the same compound?
Its AUC(0-t) is 255 ng·h/mL.

What about the AUC(0-t) ([2]; oral 10 mg/kg) of the same compound?
Its AUC(0-t) is 350 ng·h/mL.
